Data from patent US20120263780A1, “Carbohydrate Entrapped Active Agent Delivery Composition and Articles Using the Same” (priority 2009, published 2012).

How the values were obtained:
[1] = system: Staphylococcus aureus (ATCC #6538); experiment: Zone of inhibition testing on agar plates; format: cell-based; conditions: for Observed Zone of Inhibition (mm): 7 day old sample; for Zone (mm): thymol powder in well
Protocol: The samples prepared above were cut into 10 mm-diameter circular sections of thymol-treated and untreated material. These samples were placed on a freshly streaked sample of staphylococcus aureus on trypticase soy agar. After 24 hours incubation at 37° C., plates were measured for zones of inhibitions surrounding the samples. To calculate the zone of inhibition, the test material was brought into contact with a known population of test microorganisms on an agar plate for a specified period of time. At the end of the contact time the area of inhibited colony formation around the test material was measured. The size of this area of no growth was a measure of leaching of the antimicrobial agent from the test material. In this procedure, the test material was cut into small discs and placed on an agar plate evenly spread with a test microorganism. The plates were incubated for 24 hours at ideal growth conditions. Following incubation, the diameter of the circle of no growth around the disc was measured. The zone of inhibition was reported as the difference between the sample disc diameter and the average of the measured no growth zone diameters. Materials and Reagents • Microorganisms: frozen stock of Staphylococcus aureus (ATCC 6538). • Mueller-Hinton agar (MHA) plates or equivalent plated media. Prepare following manufacturer's directions. Store at 4±2° C. Alternatively pre-made plates can be utilized. • Mueller-Hinton broth (MHB) or equivalent liquid media. Prepare following manufacturers directions. Store at 4±2° C. Alternately pre-made media can be utilized. • Sterile cotton swabs or equivalent. • Sterile forceps. • Positive control disc: Vanocymicin susceptibility discs (6 mm), 30 μg/disc (BD and Company; Sparks, Md.). • Test material, cut into 8 mm discs. • Calipers or other measuring device. • Other ancillary lab supplies. 2. Staphylococcus aureus (ATCC 6538) is inoculated from an overnight plate or MHB into 5 ml of sterile MHB in a 35° C. incubator for 18-24 hrs. 3. The overnight culture is then adjusted using MHB to the 0.5 McFarland barium sulphate standards (1×10^8 CFU/ml) or approximately 0.15 OD with a 0.2 cm light path at 660 nanometer. 1. Pre-warm, to room temperature, MHA plates. […] 3. Moisten a sterile applicator swab in the standardized cell suspension and express any excess moisture by rotating the swab against the glass above the liquid in the tube. Inoculate the entire surface of each plate, inoculating the surface completely in three different directions to ensure uniform growth. 5. Store the inoculated plates at room temperature for 10-15 minutes to allow the medium to absorb the moisture from the inoculum. 6. Apply discs of test material to the surface of the inoculated medium with a sterile forceps and tap them to ensure that they are in complete contact with the agar surface. A positive control (vancomycin disc) and negative control (uncoated disc) should be used on each plate. 7. Invert the inoculated plates and incubate them at 35° C. for 18-24 hours. 8. Examine the plates from the back, viewed against a black background and illuminated with reflected light. With calipers, measure the diameter of each zone of inhibition to the nearest whole millimeter. Zone of Inhibition=diameter of no growth area−diameter of disc First, exemplary Delivery Compositions 1 and 2 were created. A sucrose blend was melted on a stove top to prepare a carbohydrate matrix. An active agent was added to the molten sucrose to provide a 2% loading of thymol. After the mixture was melted, analysis was performed to determine the amount of thymol retained within the sucrose. Delivery Composition 1 contained approximately 0.72 wt. % thymol and Delivery Composition 2 contained approximately 0.74 wt. % thymol. Both Delivery Compositions 1 and 2 were placed in a well in a media with a plate inoculated with Staphylococcus aureus (ATCC #6538) and a zone of inhibition for each sample was measured as described above. […]

[2] = system: Staphylococcus aureus (ATCC #6538); experiment: Shake flask test ASTM E2149-01, anti-bacterial activity of thymol-treated coform substrates; format: cell-based; conditions: 7 day old sample, 1 hour exposure
Protocol: Five sections of coform material approximately 17 cm by 17 cm were prepared and weighed to determine the amount of thymol needed for loading of thymol at a weight percent of 0.3%, 0.6% and 1.0%. The determined quantity of thymol to provide thymol as a percentage was placed in an excess (39.0 grams) of ethanol to be dissolved. The coform substrates were placed into a plastic bag and the ethanol/thymol mixture was added. Using a cylindrical glass jar rolled on the outside of the sealed plastic bag, the sheets were rolled to evenly express the liquid throughout the coform squares. The coform was then removed from the bag and placed in a fume hood to allow the ethanol to evaporate off. The remaining dry sheets containing thymol were removed from the hood after one hour and placed in a dry plastic bag. Samples were aged 7 days and tested for anti-bacterial activity. To determine the anti-bacterial activity of the samples after 7 days, the shake flask test of ASTM […]-01 “Standard Test Method for Determining the Antimicrobial Activity of Immobilized Antimicrobial Agents Under Dynamic Contact Conditions” was used. Approximately 1 gram samples of thymol-treated and untreated coform substrates were placed in individual capped flasks containing approximately 10^5 CFU of a Staphylococcus aureus (ATCC #6538) in phosphate buffered saline. Flasks were shaken at maximum speed on a wrist-action shaker for 1 hour. […] The active agent thymol has volatilized off of the sample within the 7 day time period.

[3] = 0.3% thymol add-on to coform substrate
[4] = 0.6% thymol add-on to coform substrate
[5] = 1% thymol add-on to coform substrate

`Cc1ccc(C(C)C)c(O)c1` [Thymol, thymol] was tested, and the “Observed Zone of Inhibition (mm)” value [1, 3] was 0 mm, the “Observed Zone of Inhibition (mm)” value [1, 4] was 0 mm and the “Observed Zone of Inhibition (mm)” value [1, 5] was 0 mm. For the same compound, the zone of inhibition ([1]; neat powder, various amounts, after 1 day) was 10-15 mm, the “Zone (mm)” value ([1]; weight 0.0018 grams) was 10 mm and the “Zone (mm)” value ([1]; weight 0.0045 grams) was 12 mm. The “Zone (mm)” value ([1]; weight 0.0353 grams) was 13 mm, the “Zone (mm)” value ([1]; weight 0.0789 grams) was 12 mm and the “Zone (mm)” value ([1]; weight 0.1609 grams) was 15 mm. For the same compound, the “Log10 Reduction of Bacteria” value [2, 3] was “No Reduction”, the “Log10 Reduction of Bacteria” value [2, 4] was “No Reduction” and the “Log10 Reduction of Bacteria” value [2, 5] was “No Reduction”.
